Laboratory results reported in ChEMBL document CHEMBL3877252, “Fluorescein hydrazones: A series of novel non-intercalative topoisomerase IIα catalytic inhibitors induce G1 arrest and apoptosis in breast and colon cancer cells” (Eur J Med Chem, 2017).
The source made the active and inactive calls. No cut-off for these calls is given here.

Legend:
[1] = Cell cycle arrest in human T47D cells assessed as accumulation at S phase at 3 uM after 24 hrs by DAPI staining-based cell analyzer (reference value: 26%); format: functional
[2] = Cell cycle arrest in human T47D cells assessed as accumulation at G2/M phase at 10 uM after 24 hrs by DAPI staining-based cell analyzer (reference value: 15%); format: functional
[3] = Cell cycle arrest in human T47D cells assessed as accumulation at S phase at 10 uM after 20 hrs by DAPI staining-based cell analyzer (reference value: 22%); format: functional
[4] = Cell cycle arrest in human T47D cells assessed as decrease in cyclin D1 level at 10 uM; format: functional, cell-based; details: TDE = time-dependent effect
[5] = Cell cycle arrest in human T47D cells assessed as accumulation at S phase at 10 uM after 10 hrs by DAPI staining-based cell analyzer (reference value: 22%); format: functional
[6] = Antiproliferative activity against human HCT15 cells measured after 72 hrs by CCK8 assay; format: functional, cell-based; details: HCT-15, 72 h
[7] = target: DNA topoisomerase 2-alpha (Homo sapiens) (UniProt P11388); assay: Inhibition of human topoisomerase-2 alpha assessed as inhibition of relaxation of supercoiled pBR322 plasmid DNA at 100 uM measured after 1 hr by ethidium bromide staining based agarose gel electrophoresis relative to control
[8] = Cell cycle arrest in human T47D cells assessed as accumulation at G2/M phase at 10 uM after 5 hrs by DAPI staining-based cell analyzer (reference value: 18 to 20%); format: functional
[9] = Cell cycle arrest in human T47D cells assessed as accumulation at G1 phase at 10 uM after 24 hrs by DAPI staining-based cell analyzer (reference value: 51%); format: functional
[10] = Cell cycle arrest in human T47D cells assessed as accumulation at G2/M phase at 3 uM after 24 hrs by DAPI staining-based cell analyzer (reference value: 15%); format: functional
[11] = Cell cycle arrest in human T47D cells assessed as accumulation at G2/M phase at 10 uM after 10 hrs by DAPI staining-based cell analyzer (reference value: 18 to 20%); format: functional
[12] = target: DNA topoisomerase 2-alpha (Homo sapiens) (UniProt P11388); assay: Inhibition of human topoisomerase-2 alpha assessed as inhibition of relaxation of supercoiled pBR322 plasmid DNA at 20 uM measured after 1 hr by ethidium bromide staining based agarose gel electrophoresis relative to control
[13] = Cell cycle arrest in human T47D cells assessed as decrease in cyclin D1 level measured after 24 hrs; format: functional, cell-based
[14] = Cell cycle arrest in human T47D cells assessed as accumulation at G1 phase at 10 uM after 20 hrs by DAPI staining-based cell analyzer (reference value: 47 to 50%); format: functional
T47D [15] = assay: Induction of apoptosis in human T47D cells assessed as increase in bax level measured after 24 hrs by Western blot analysis; format: functional, cell-based
[16] = Cell cycle arrest in human T47D cells assessed as accumulation at G1 phase at 10 uM by DAPI staining based cell analyzer; format: functional; details: TDE = time-dependent effect
[17] = Cell cycle arrest in human T47D cells assessed as accumulation at G1 phase at 3 uM after 24 hrs by DAPI staining-based cell analyzer (reference value: 51%); format: functional
[18] = Antiproliferative activity against human T47D cells measured after 72 hrs by CCK8 assay; format: functional, cell-based
[19] = Cell cycle arrest in human T47D cells assessed as accumulation at G2/M phase at 10 uM after 15 hrs by DAPI staining-based cell analyzer (reference value: 18 to 20%); format: functional
[20] = Cell cycle arrest in human T47D cells assessed as accumulation at G1 phase at 10 uM after 5 hrs by DAPI staining-based cell analyzer (reference value: 47 to 50%); format: functional
[21] = target: T1, DNA topoisomerase 1 (Homo sapiens) (UniProt P11387); assay: Inhibition of human topoisomerase-1 assessed as inhibition of relaxation of supercoiled pBR322 plasmid DNA at 100 uM measured after 1 hr by ethidium bromide staining based agarose gel electrophoresis relative to control
T1 sequence (whole entry): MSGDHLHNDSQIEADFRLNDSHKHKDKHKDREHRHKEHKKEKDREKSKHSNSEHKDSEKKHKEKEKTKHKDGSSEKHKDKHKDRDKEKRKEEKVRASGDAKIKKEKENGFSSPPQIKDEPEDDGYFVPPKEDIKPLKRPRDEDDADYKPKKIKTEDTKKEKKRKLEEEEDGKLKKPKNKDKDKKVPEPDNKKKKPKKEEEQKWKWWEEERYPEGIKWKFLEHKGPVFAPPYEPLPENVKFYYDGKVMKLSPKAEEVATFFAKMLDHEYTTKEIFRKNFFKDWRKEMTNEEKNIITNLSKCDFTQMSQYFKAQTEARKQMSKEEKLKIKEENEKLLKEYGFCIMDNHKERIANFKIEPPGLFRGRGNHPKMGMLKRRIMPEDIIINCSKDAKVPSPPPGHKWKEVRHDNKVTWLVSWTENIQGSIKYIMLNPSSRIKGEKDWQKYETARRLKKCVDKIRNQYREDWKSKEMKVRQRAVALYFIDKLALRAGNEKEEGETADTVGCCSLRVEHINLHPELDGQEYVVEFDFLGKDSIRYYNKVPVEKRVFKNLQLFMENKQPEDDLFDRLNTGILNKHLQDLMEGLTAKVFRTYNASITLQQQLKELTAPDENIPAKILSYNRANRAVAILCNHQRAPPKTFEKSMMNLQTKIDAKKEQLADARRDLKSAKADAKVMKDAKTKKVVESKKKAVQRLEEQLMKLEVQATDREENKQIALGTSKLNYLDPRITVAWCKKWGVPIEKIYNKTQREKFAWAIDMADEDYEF

[22] = Cell cycle arrest in human T47D cells assessed as accumulation at G1 phase at 10 uM after 10 hrs by DAPI staining-based cell analyzer (reference value: 47 to 50%); format: functional
[23] = Cell cycle arrest in human T47D cells assessed as accumulation at G1 phase at 10 uM after 15 hrs by DAPI staining-based cell analyzer (reference value: 47 to 50%); format: functional
T47D [24] = assay: Induction of apoptosis in human T47D cells assessed as decrease in bcl-2 level measured after 24 hrs by Western blot analysis; format: functional, cell-based
[25] = Cell cycle arrest in human T47D cells assessed as increase in p27kip1 level measured after 24 hrs; format: functional, cell-based
[26] = Cell cycle arrest in human T47D cells assessed as accumulation at S phase at 10 uM after 24 hrs by DAPI staining-based cell analyzer (reference value: 26%); format: functional
[27] = Cell cycle arrest in human T47D cells assessed as accumulation at G2/M phase at 1 uM after 24 hrs by DAPI staining-based cell analyzer (reference value: 15%); format: functional
[28] = target: DNA topoisomerase 2-alpha (Homo sapiens) (UniProt P11388); assay: Poison activity at topoisomerase-2 alpha in human T47D cells assessed as DNA damage by measuring DNA tail length at 10 uM measured after 24 hrs by alkaline comet assay; format: cell-based
[29] = target: DNA topoisomerase 2-alpha (Homo sapiens) (UniProt P11388); assay: Inhibition of topoisomerase-2 alpha catalytic activity in human T47D cells assessed as appearance of free protein band at 50 uM measured after 2 hrs by Western blot analysis; format: cell-based
[30] = Cell cycle arrest in human T47D cells assessed as accumulation at S phase at 10 uM after 15 hrs by DAPI staining-based cell analyzer (reference value: 22%); format: functional
[31] = Antiproliferative activity against human DU145 cells measured after 72 hrs by CCK8 assay; format: functional, cell-based; details: DU-145, 72 h
[32] = target: DNA topoisomerase 2-alpha (Homo sapiens) (UniProt P11388); assay: Poison activity at topoisomerase-2 alpha in human T47D cells assessed as DNA damage by measuring DNA tail length at 5 uM measured after 24 hrs by alkaline comet assay; format: cell-based
[33] = Cell cycle arrest in human T47D cells assessed as accumulation at S phase at 10 uM after 5 hrs by DAPI staining-based cell analyzer (reference value: 22%); format: functional
T47D [34] = assay: Induction of apoptosis in human T47D cells assessed as increase in cleaved PARP level measured after 24 hrs by Western blot analysis; format: functional, cell-based
[35] = Cell cycle arrest in human T47D cells assessed as increase in p27kip1 level at 10 uM; format: functional, cell-based; details: TDE = time-dependent effect
[36] = Cell cycle arrest in human T47D cells assessed as accumulation at G1 phase at 1 uM after 24 hrs by DAPI staining-based cell analyzer (reference value: 51%); format: functional
[37] = Antiproliferative activity against human MCF7 cells measured after 72 hrs by CCK8 assay; format: functional, cell-based; details: MCF7, 72 h
[38] = Cell cycle arrest in human T47D cells assessed as accumulation at S phase at 1 uM after 24 hrs by DAPI staining-based cell analyzer (reference value: 26%); format: functional
[39] = Cell cycle arrest in human T47D cells assessed as accumulation at G2/M phase at 10 uM after 20 hrs by DAPI staining-based cell analyzer (reference value: 18 to 20%); format: functional
[40] = target: T1, DNA topoisomerase 1 (Homo sapiens); assay: Inhibition of human topoisomerase-1 assessed as inhibition of relaxation of supercoiled pBR322 plasmid DNA at 20 uM measured after 1 hr by ethidium bromide staining based agarose gel electrophoresis relative to control

DNA topoisomerase 2-alpha (Homo sapiens), sequence (P11388 whole entry): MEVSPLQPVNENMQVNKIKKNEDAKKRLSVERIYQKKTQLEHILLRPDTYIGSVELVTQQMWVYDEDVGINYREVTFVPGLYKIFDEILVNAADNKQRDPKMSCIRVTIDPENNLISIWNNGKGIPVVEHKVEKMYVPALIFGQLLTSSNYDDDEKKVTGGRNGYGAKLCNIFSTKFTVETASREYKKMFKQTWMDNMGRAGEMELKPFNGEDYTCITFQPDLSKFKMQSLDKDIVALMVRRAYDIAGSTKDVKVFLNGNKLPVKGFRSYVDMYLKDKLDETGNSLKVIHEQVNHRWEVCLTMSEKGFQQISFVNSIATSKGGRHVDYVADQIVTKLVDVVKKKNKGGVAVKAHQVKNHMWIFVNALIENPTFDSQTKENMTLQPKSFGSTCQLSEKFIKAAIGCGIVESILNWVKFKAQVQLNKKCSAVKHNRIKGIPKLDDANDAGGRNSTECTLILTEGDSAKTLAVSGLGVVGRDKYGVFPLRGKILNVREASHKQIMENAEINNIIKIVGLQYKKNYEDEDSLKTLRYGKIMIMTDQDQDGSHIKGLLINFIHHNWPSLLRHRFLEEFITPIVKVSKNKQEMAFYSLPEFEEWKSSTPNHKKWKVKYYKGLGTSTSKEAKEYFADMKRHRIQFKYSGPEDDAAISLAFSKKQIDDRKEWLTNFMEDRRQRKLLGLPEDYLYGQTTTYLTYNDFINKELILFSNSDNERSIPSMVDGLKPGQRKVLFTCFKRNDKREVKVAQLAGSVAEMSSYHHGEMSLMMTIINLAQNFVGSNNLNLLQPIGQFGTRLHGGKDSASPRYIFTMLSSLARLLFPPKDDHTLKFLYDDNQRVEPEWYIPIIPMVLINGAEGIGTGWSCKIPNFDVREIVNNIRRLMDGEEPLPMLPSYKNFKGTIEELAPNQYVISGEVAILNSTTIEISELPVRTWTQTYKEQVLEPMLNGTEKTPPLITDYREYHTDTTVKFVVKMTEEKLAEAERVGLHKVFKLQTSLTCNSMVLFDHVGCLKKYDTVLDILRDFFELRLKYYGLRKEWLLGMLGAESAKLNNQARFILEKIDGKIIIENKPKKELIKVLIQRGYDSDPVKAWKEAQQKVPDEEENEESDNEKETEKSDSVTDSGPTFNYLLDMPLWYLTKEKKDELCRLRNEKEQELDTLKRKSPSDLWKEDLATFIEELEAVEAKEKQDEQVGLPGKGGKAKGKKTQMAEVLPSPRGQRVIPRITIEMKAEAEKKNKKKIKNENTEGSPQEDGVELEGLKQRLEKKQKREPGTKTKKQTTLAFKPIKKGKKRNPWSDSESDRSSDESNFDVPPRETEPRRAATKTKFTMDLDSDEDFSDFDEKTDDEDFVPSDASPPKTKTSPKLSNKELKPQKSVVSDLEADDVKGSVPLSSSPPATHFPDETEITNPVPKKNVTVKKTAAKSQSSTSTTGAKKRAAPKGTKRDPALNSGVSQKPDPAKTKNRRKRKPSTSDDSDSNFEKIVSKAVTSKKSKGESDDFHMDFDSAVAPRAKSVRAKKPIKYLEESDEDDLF

Compound	Activity [1] [%]	Activity [2] [%]	Activity [3] [%]	Activity [4]	Activity [5] [%]	IC50 [6] [nM]	inhibition [7] [%]	Activity [8] [%]	Activity [9] [%]	Activity [10] [%]	Activity [11] [%]	inhibition [12] [%]	Activity [13]	Activity [14] [%]	Activity (T47D [15])	Activity [16]	Activity [17] [%]	IC50 [18] [nM]	Activity [19] [%]	Activity [20] [%]	further results
CCOc1ccc2c(c1)Oc1cc(O)ccc1C21c2ccccc2C(=O)N1/N=C/c1cccc(O)c1 (centres undefined)	22	9	15	Tde	21	830	89.3	12	64	12	12	2.6	Dose-dependent effect	65	Dose-dependent effect	Tde	57	350	12	59	inhibition [21]: 0%; Activity [22]: 60%; Activity [23]: 61%; Activity (T47D [24]): Dose-dependent effect; Activity [25]: Dose-dependent effect; Activity [26]: 20%; Activity [27]: 13%; Activity [28]: 11.5 pixel; inhibition [29]: Active; Activity [30]: 21%; IC50 [31]: 40 nM; Activity [32]: 9.55 pixel; Activity [33]: 21%; Activity (T47D [34]): Dose-dependent effect; Activity [35]: Tde; Activity [36]: 56%; IC50 [37]: 2230 nM; Activity [38]: 24%; Activity [39]: 12%
CCOc1ccc2c(c1)Oc1cc(O)ccc1C21c2ccccc2C(=O)N1/N=C/c1ccccc1O (centres undefined)	25	11	20	Tde	22	1840	78.7	14	60	11	13	1.9	Dose-dependent effect	62	Dose-dependent effect	Tde	59	430	10	51	inhibition [40]: 28.1%; inhibition [21]: 39.5%; Activity [22]: 55%; Activity [23]: 57%; Activity (T47D [24]): Dose-dependent effect; Activity [25]: Dose-dependent effect; Activity [26]: 22%; Activity [27]: 14%; Activity [28]: 8.56 pixel; inhibition [29]: Active; Activity [30]: 21%; IC50 [31]: 550 nM; Activity [32]: 7.76 pixel; Activity [33]: 21%; Activity (T47D [34]): Dose-dependent effect; Activity [35]: Tde; Activity [36]: 54%; IC50 [37]: 4740 nM; Activity [38]: 28%; Activity [39]: 10%
